We go through 34 sequences from the OligoGym collection.

The target of one data set is ANGPTL2. The settings on record: ASO.
In another data set the target is KRAS. The settings on record: ASO.

Where “and” joins values, the source holds several entries; their conditions need not be identical. Equal entries are not always repeated. After the bases stand the sugars from the 5' end (letter, count) and the backbone: PS all phosphorothioate, else s phosphorothioate and o phosphodiester by linkage. Methylation of C is not given here. e = 2'-O-(2-methoxyethyl) (MOE); l = locked nucleic acid (LNA); k = constrained ethyl (cEt); d = 2'-deoxy (DNA)

As for “CAGCCAGTAAATGTTCTCCA (sugars l1 d17 l2, PS)”, the target mRNA inhibition with ANGPTL2 (5 µM) was 42.8%; in the data set with ANGPTL2 (25 µM), 38%.
Take “AGTAGCCTTCTGACCAA (sugars l1 d13 l3, PS)”: the target mRNA inhibition with ANGPTL2 (5 µM) was determined as 48.5%; with ANGPTL2 (25 µM) it was 56.5%.
With CCAACACTAACTCGGC (sugars l2 d12 l2, PS), the target mRNA inhibition with ANGPTL2 (5 µM) is 36%; with ANGPTL2 (25 µM), 54.3%.
As to CTAGACATACCATCTA (sugars l3 d10 l3, PS), the target mRNA inhibition with ANGPTL2 (5 µM) came out at 34.9%; in the data set with ANGPTL2 (25 µM) it was 40%.
For “TGTTTGGAAATGTTATCT (sugars l3 d11 l4, PS)”, the results for the target mRNA inhibition in the data set with ANGPTL2 (5 µM) and with ANGPTL2 (25 µM) were 80.9% and 87.1%, respectively.
As for “TAATAGGCACACACCCAGAC (sugars l1 d17 l2, PS)”, the target mRNA inhibition with ANGPTL2 (5 µM) was determined as 27.2%; in the data set with ANGPTL2 (25 µM) it was 43.3%.
On to “CAAAGGCATTTCAGTTCC (sugars l1 d14 l3, PS)”, for which the target mRNA inhibition in the data set with ANGPTL2 (5 µM) turned out to be 56.8%; with ANGPTL2 (25 µM), 70.4%.
In the case of “GTGGGCAAGAGGGATGC (sugars l1 d14 l2, PS)”, the values for the target mRNA inhibition with ANGPTL2 (5 µM) and in the data set with ANGPTL2 (25 µM) were 35% and 32.2%, respectively.
Regarding “GTTGATGATGCGGTTGTAG (sugars l1 d16 l2, PS)”, the target mRNA inhibition stood at 22.9% in the data set with ANGPTL2 (5 µM) and 34% with ANGPTL2 (25 µM).
Turning to “ACCCTCCATCCTTCACC (sugars l2 d13 l2, PS)”, the target mRNA inhibition in the data set with ANGPTL2 (5 µM) was 34.7%; with ANGPTL2 (25 µM), 54.5%.
Take “ATGGTGGTTATTCTTTGTGA (sugars l1 d17 l2, PS)”: the target mRNA inhibition in the data set with ANGPTL2 (5 µM) was found to be 33%; in the data set with ANGPTL2 (25 µM), 35.7%.
For “AAGAGAGAAGGCAGTGAGAG (sugars l2 d16 l2, PS)”, the target mRNA inhibition was 24.8% in the data set with ANGPTL2 (5 µM) and 10.9% in the data set with ANGPTL2 (25 µM).
As for TCCGGTAATGGCCCC (sugars l1 d12 l2, PS), the target mRNA inhibition was 34% in the data set with ANGPTL2 (5 µM) and 51.8% with ANGPTL2 (25 µM).
On to GCTCCGGTAATGGCCC (sugars l1 d12 l3, PS), for which the target mRNA inhibition amounted to 25.9% in the data set with ANGPTL2 (5 µM) and 29.2% with ANGPTL2 (25 µM).
For “GTTGATAGTTTATCTCC (sugars l3 d12 l2, PS)”, the target mRNA inhibition amounted to 87.4% with ANGPTL2 (5 µM) and 88.8% in the data set with ANGPTL2 (25 µM).
TGCTATAATAATCCCC (sugars k3 d10 k3, PS): the target mRNA inhibition with KRAS (A431, 2 µM) amounted to 43%.
Still for that read-out and setting: then “CCATTCAAAGTTCACA (sugars k3 d9 k3 e1, PS)”, with 41%; and “CTTGATTTGTCAGCAG (sugars kkkddddddddkdkdk, PS)”, with 33%.
Turning to “GTGTTTATGCAATGTT (sugars kdddddddddkekeke, PS)”, the target mRNA inhibition with KRAS (A431, 2 µM) came out at 41%.
On to CCATTCAAAGTTCACA (sugars k3 d10 k3, PS), for which the target mRNA inhibition with KRAS (A431, 2 µM) was 42%.
The sequence “GATTTGTCAGCAGGAC (sugars kkddddddddkekekk, PS)” came in with a target mRNA inhibition with KRAS (A431, 2 µM) of 0%.
Sequence CATGCTGTGAAACTCT (sugars k3 d10 k3, PS) gave a target mRNA inhibition with KRAS (A431, 2 µM) of 8%.
For “TCCAGTGATACTTTCA (sugars kkddddddddddkeke, PS)”, the target mRNA inhibition in the data set with KRAS (A431, 2 µM) is 39%.
“AGTGTGACTCAGTTAA (sugars k3 d9 k3 e1, PS)” yielded a target mRNA inhibition with KRAS (A431, 2 µM) of 15%.
Take GATGGTGTAACATAGG (sugars k3 d10 k3, PS): the target mRNA inhibition with KRAS (A431, 0.185 µM) was determined as 8%; in the data set with KRAS (A431, 0.556 µM), 30%; in the data set with KRAS (A431, 1.667 µM), 56%; in the data set with KRAS (A431, 2 µM), 60%; with KRAS (A431, 5 µM) it was 68%.
In the data set with KRAS (A431, 2 µM), CCATGCTGTGAAACTC (sugars k3 d10 k3, PS) registered a target mRNA inhibition of 26%.
In the case of “GTCCAGTGATACTTTC (sugars k3 d9 k3 e1, PS)”, in the data set with KRAS (A431, 2 µM), the target mRNA inhibition is 48%.
In the data set with KRAS (A431, 2 µM), ACTAATAGCAGTGGAA (sugars k3 d10 k3, PS) returned a target mRNA inhibition of 27%.
With “ATTGTGCTGAGCTTGA (sugars kdddddddddkekeke, PS)”, the target mRNA inhibition with KRAS (A431, 2 µM) was determined as 18%.
Sequence “AGTGTGACTCAGTTAA (sugars kkddddddddddkeke, PS)” showed a target mRNA inhibition in the data set with KRAS (A431, 2 µM) of 41%.
For TGAAAAGTGTTTATGC (sugars k3 d10 k3, PS), the target mRNA inhibition with KRAS (A431, 2 µM) came out at 40%.
For AATTAATGTCTTGGCA (sugars k3 d10 k3, PS), the target mRNA inhibition with KRAS (A431, 2 µM) turned out to be 12%.
In the case of AGGAGTCTTTATAGTA (sugars k3 d10 k3, PS), the target mRNA inhibition was 14% with KRAS (A431, 0.185 µM); 42% with KRAS (A431, 0.556 µM); 58% with KRAS (A431, 1.667 µM); 66% and 65% and 57% with KRAS (A431, 2 µM); 77% in the data set with KRAS (A431, 5 µM).
In the data set with KRAS (A431, 2 µM), AATGTCACAAGCAGAA (sugars k3 d10 k3, PS) displayed a target mRNA inhibition of 49%.
